Test results as given in US20220146526A1, “METHOD FOR EVALUATING SAMPLE, ANALYSIS METHOD, METHOD FOR DETECTING DEGRADED SAMPLE, MARKER FOR DETECTING DEGRADED BLOOD PLASMA SAMPLE, AND MARKER FOR DETECTING DEGRADED SERUM SAMPLE” (SHIMADZU CORPORATION, priority 2019, published 2022).
Where “and” joins values, the source holds several entries; their conditions need not be identical. Equal values may be shown once.

Legend:
Type in all cases: physicochemical, human
[1] = GC/MS of blood plasma sample: time from blood collection to centrifugation (Table A); conditions: for Rate of increase or decrease: detection intensity relative to 1 at 15 minutes; for Rate of increase or decrease / Increase or decrease: blood collection to centrifugation; for Increase or decrease: detection intensity; for Rate of increase or decrease (second value, decrease) / Rate of increase or decrease (first value, increase): different from individual to individual, relative to 1 at 15 minutes, collection to centrifugation; for Rate of increase or decrease (second value, decrease): individuals with decrease; for Rate of increase or decrease (first value, increase): individuals with increase
Outline: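 EDTA blood from a healthy subject was cooled at 4° C, centrifuged at 4° C, 3000 rpm, 15 minutes, and plasma was frozen. After methoxymation and trimethylsilylation, samples ran on GC/MS (BPX5 column, 60-330° C gradient, electron ionization, MRM). Intensity is relative to 15 minutes from collection to centrifugation.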

[2] = GC/MS of blood plasma sample: time from blood collection to cooling of blood (Table B); parameters: key to Rate of increase or decrease / Rate of increase or decrease (first value, increase): detection intensity relative to 1 at cooling time ≤1 min; conditions: for Increase or decrease: detection intensity, blood collection to cooling 5 minutes or more vs 1 minute or less; for Rate of increase or decrease (second value, decrease) / Rate of increase or decrease (first value, increase): different from individual to individual, relative to 1 at 1 minute or less, collection to cooling 5 minutes; for Rate of increase or decrease (second value, decrease): individuals with decrease; for Rate of increase or decrease (first value, increase): individuals with increase
Outline: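 Blood drawn at room temperature into EDTA tubes, mixed, then cooled at 4° C. within 1 minute or less versus 5 minutes or more before centrifugation (4° C., 3000 rpm, 15 minutes). Plasma was frozen, methoxymated and trimethylsilylated, and analysed by EI GC/MS in MRM mode. Values are detection intensity relative to the ≤1 minute condition.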

[3] = GC/MS of blood plasma sample: number of times of freezing and thawing (Table C); conditions: for Rate of increase or decrease: detection intensity relative to 1 at 2 times; for Increase or decrease: detection intensity
Outline: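 EDTA plasma from a healthy subject, cooled within 1 min or after 5+ min, centrifuged 4 °C/3000 rpm/15 min, frozen, then freeze-thawed 2, 4, 6 or 10 times. Methoximated, trimethylsilylated samples run by GC/MS (BPX5 column, EI, MRM). Values are detection intensity relative to 2 freeze-thaw cycles set as 1.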

[4] = GC/MS of serum sample: time from blood collection to centrifugation (Table G); conditions: for Increase or decrease: detection intensity; for Increase or decrease / Rate of increase or decrease: blood collection to centrifugation; for Rate of increase or decrease (second value, decrease) / Rate of increase or decrease (first value, increase): different from individual to individual, relative to 1 at 15 minutes, collection to centrifugation; for Rate of increase or decrease (second value, decrease): individuals with decrease; for Rate of increase or decrease (first value, increase): individuals with increase; for Rate of increase or decrease: detection intensity relative to 1 at 15 minutes
Outline: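 Blood was held for varying times before centrifugation (room temperature, 3500 rpm, 5 min); serum was frozen, then methoxymated and trimethylsilylated for GC/MS with electron ionization in MRM mode. Values are detection intensities relative to the 15-minute collection-to-centrifugation condition, set as 1.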

[5] = GC/MS of serum sample: time from centrifugation to isolation (Table H); parameters: key to Rate of increase or decrease / Rate of increase or decrease (first value, increase): detection intensity relative to 1 at 30 min centrifugation-to-isolation; conditions: for Rate of increase or decrease: detection intensity relative to 1 at 30 minutes; for Increase or decrease: detection intensity
Outline: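 Blood was centrifuged at room temperature, 3500 rpm, 5 min, and the vessel left at room temperature for 30 min, 1 h or 6 h before serum isolation. Serum was methoxymated, trimethylsilylated and analysed by GC/MS with electron ionization in MRM mode; intensities expressed relative to the 30-min condition (=1).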

[6] = GC/MS of serum sample: number of times of freezing and thawing (Table I); parameters: key to Rate of increase or decrease / Rate of increase or decrease (first value, increase): detection intensity relative to 2 freeze-thaw cycles = 1; conditions: for Rate of increase or decrease: detection intensity relative to 1 at 2 times; for Number of times when compound is affected: detection intensity changed by 30% or more vs 2 times of freezing and thawing
Outline: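 Serum was isolated after centrifugation at room temperature (3500 rpm, 5 min), frozen, and put through 2, 4, 6 or 10 freeze–thaw cycles. Samples were methoxymated and trimethylsilylated, then run by electron-ionization GC/MS in MRM mode on a BPX5 column (60 to 330 °C). Detection intensity is given relative to the 2-cycle sample, set as 1.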

[7] = LC/MS of blood plasma sample: time from blood collection to centrifugation (Table D)
Outline: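 Healthy-subject blood (5 mL, EDTA) cooled and held at 4 °C before centrifugation (4 °C, 3000 rpm, 15 min), with plasma then frozen. LC/MS on Discovery HS F5-3 column at 40 °C, 0.1% formic acid water/acetonitrile, 0.25 mL/min, electrospray, MRM; intensities relative to 15 min collection-to-centrifugation set as 1.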

[8] = LC/MS of blood plasma sample: number of times of freezing and thawing (Table F)
Outline: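 Human blood from a healthy subject drawn into EDTA tubes, cooled to 4° C within 1 min or after ≥5 min, centrifuged at 4° C, 3000 rpm, 15 min. Plasma frozen, then freeze-thawed 2, 4, 6 or 10 times and analysed by LC/MS (ESI, MRM). Intensities expressed relative to 2 freeze-thaw cycles set as 1.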

[9] = LC/MS of serum sample: time from blood collection to centrifugation (Table J)
Outline: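 Serum from blood centrifuged at room temperature, 3500 rpm, 5 min, then frozen; analysed by LC/MS on a Discovery HS F5-3 column at 40 °C. Mobile phase: 0.1% formic acid in water/acetonitrile, 0.25 mL/min, electrospray MRM. Values are intensity relative to a 15 min collection-to-centrifugation time.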

[10] = LC/MS of serum sample: number of times of freezing and thawing (Table M); parameters: key to Rate of increase or decrease: detection intensity relative to 1 at 2 freeze-thaw cycles
Outline: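 Serum was isolated at room temperature after centrifugation at room temperature, 3500 rpm, 5 minutes, then frozen and freeze-thawed 2, 4, 6 or 10 times. LC/MS used a Discovery HS F5-3 column at 40° C with formic acid water/acetonitrile, electrospray MRM. Intensity is relative to 2 freeze-thaw cycles.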

[11] = freezing and thawing 4 times vs 2 times
[12] = serum, GC/MS, freezing and thawing 4 times
[13] = serum, GC/MS, freezing and thawing 6 times
[14] = detection intensity, serum, GC/MS, freezing and thawing 4 times vs 2 times
[15] = detection intensity, serum, GC/MS, freezing and thawing 6 times vs 2 times
[16] = 10 times of freezing and thawing
[17] = serum sample, GC/MS, detection intensity vs 2 times of freezing and thawing
[18] = freezing and thawing 6 times vs 2 times

Compound	Increase or decrease [2]	Rate of increase or decrease ([3]; freezing and thawing 4 times)	Increase or decrease [3, 11]	Increase or decrease ([4]; after 4 hours vs 15 minutes)	Increase or decrease ([4]; after 8 hours vs 15 minutes)	Rate of increase or decrease ([5]; after 1 hour)	Increase or decrease ([5]; after 1 hour vs 30 minutes)	Rate of increase or decrease [6, 12]	Increase or decrease [6, 14]	Increase or decrease ([1]; after 4 hours vs 15 minutes)	Rate of increase or decrease (second value, decrease) ([1]; after 4 hours)	Rate of increase or decrease (first value, increase) ([1]; after 4 hours)	Rate of increase or decrease (second value, decrease) [2]	Rate of increase or decrease (first value, increase) [2]	Rate of increase or decrease ([4]; after 4 hours)	Rate of increase or decrease [6, 16]	Number of times when compound is affected ([6]; serum sample, GC/MS)	Rate of increase or decrease [6, 13]	Increase or decrease [6, 15]	Rate of increase or decrease ([4]; after 8 hours)	other results
OC[C@H]1O[C@@H](O[C@H]2[C@H](O)[C@@H](O)C(O)O[C@@H]2CO)[C@H](O)[C@@H](O)[C@H]1O (some centres unmarked) [Lactose]	Decrease	1.40	Increase	Different from individual	Different from individual	2.37	Increase	1.60	Increase									1.33	Increase		Rate of increase or decrease ([1]; after 12 hours): 0.70; Increase or decrease ([1]; after 12 hours vs 15 minutes): Decrease; Rate of increase or decrease ([2]; detection intensity relative to 1 at 1 minute or less, blood collection to cooling 5 minutes): 0.56; Rate of increase or decrease (second value, decrease) ([4]; after 4 hours): 0.62; Rate of increase or decrease (second value, decrease) ([4]; after 8 hours): 0.65; Rate of increase or decrease (first value, increase) ([4]; after 4 hours): 1.31; Rate of increase or decrease (first value, increase) ([4]; after 8 hours): 3.99; Rate of increase or decrease ([5]; after 6 hours): 1.43; Increase or decrease ([5]; after 6 hours vs 30 minutes): Increase
O=C(O)/C=C\C(=O)O [Maleic acid]	Different from individual			Increase		1.43	Increase	2.62	Increase	Different from individual	0.47	1.75	0.54	1.38	1.65						Rate of increase or decrease ([3]; freezing and thawing 10 times): 2.12; Increase or decrease ([3]; freezing and thawing 10 times vs 2 times): Increase
O=C(CO)[C@H](O)[C@H](O)[C@H](O)CO [Psicose]	Different from individual		Different from individual		Decrease	0.57	Decrease	0.54	Decrease	Increase			0.43 and 0.27	3.24 and 1.94				1.30	Increase	0.65	Rate of increase or decrease ([1]; after 4 hours): 4.33; Rate of increase or decrease (second value, decrease) ([3]; different from individual to individual, individuals with decrease, relative to 1 at 2 times, freezing and thawing 4 times): 0.70; Rate of increase or decrease (first value, increase) ([3]; different from individual to individual, individuals with increase, relative to 1 at 2 times, freezing and thawing 4 times): 1.77

Continued, in another order:

Increase or decrease [2]	Rate of increase or decrease ([3]; freezing and thawing 4 times)	Increase or decrease [3, 11]	Increase or decrease ([4]; after 4 hours vs 15 minutes)	Increase or decrease ([4]; after 8 hours vs 15 minutes)	Rate of increase or decrease ([5]; after 1 hour)	Increase or decrease ([5]; after 1 hour vs 30 minutes)	Rate of increase or decrease [6, 12]	Increase or decrease [6, 14]	Increase or decrease ([1]; after 4 hours vs 15 minutes)	Rate of increase or decrease (second value, decrease) ([1]; after 4 hours)	Rate of increase or decrease (first value, increase) ([1]; after 4 hours)	Rate of increase or decrease (second value, decrease) [2]	Rate of increase or decrease (first value, increase) [2]	Rate of increase or decrease ([4]; after 4 hours)	Rate of increase or decrease [6, 16]	Number of times when compound is affected ([6]; serum sample, GC/MS)	Compound	Rate of increase or decrease [6, 13]	Increase or decrease [6, 15]	Rate of increase or decrease ([4]; after 8 hours)	other results
Different from individual	0.53	Decrease	Increase		2.12	Increase			Different from individual	0.69	2.53	0.69	2.20	18.00	0.64	10 times	OC[C@H]1O[C@@](CO)(O[C@H]2O[C@H](CO)[C@@H](O)[C@H](O)[C@H]2O)[C@@H](O)[C@@H]1O [Sucrose]				Increase or decrease [6, 17]: Decrease
Different from individual				Increase	1.45	Increase						0.58	5.01		0.69	10 times	OC[C@H]1O[C@H](O[C@H]2O[C@H](CO)[C@@H](O)[C@H](O)[C@H]2O)[C@H](O)[C@@H](O)[C@@H]1O [Trehalose]			1.50	Rate of increase or decrease ([1]; after 8 hours): 0.56; Increase or decrease ([1]; after 8 hours vs 15 minutes): Decrease; Rate of increase or decrease ([3]; freezing and thawing 6 times): 1.98; Increase or decrease [3, 18]: Increase; Increase or decrease [6, 17]: Decrease
Different from individual									Different from individual	0.48	1.48	0.64	2.62				O=c1ccn([C@@H]2O[C@H](CO)[C@@H](O)[C@H]2O)c(=O)[nH]1 [Uridine]				Rate of increase or decrease ([3]; freezing and thawing 6 times): 0.69; Increase or decrease [3, 18]: Decrease; Increase or decrease ([7]; detection intensity, blood collection to centrifugation, after 12 hours vs 15 minutes): Different from individual; Rate of increase or decrease (second value, decrease) ([7]; different from individual to individual, individuals with decrease, relative to 1 at 15 minutes, collection to centrifugation, after 12 hours): 0.60; Rate of increase or decrease (first value, increase) ([7]; different from individual to individual, individuals with increase, relative to 1 at 15 minutes, collection to centrifugation, after 12 hours): 1.67; Rate of increase or decrease ([8]; detection intensity relative to 1 at 2 times, freezing and thawing 6 times): 1.31; Increase or decrease ([8]; detection intensity, freezing and thawing 6 times vs 2 times): Increase; Rate of increase or decrease ([9]; after 4 hours from blood collection to centrifugation, detection intensity relative to 1 at 15 minutes): 1.42; Increase or decrease ([9]; serum sample, LC/MS, detection intensity vs 15 minutes from blood collection to centrifugation): Increase; Time when compound is affected ([9]; serum sample, LC/MS, time from blood collection to centrifugation, detection intensity changed by 30% or more vs 15 minutes): After 4 hours; Rate of increase or decrease ([10]; 4 times of freezing and thawing, detection intensity relative to 1 at 2 times): 0.68; Number of times when compound is affected ([10]; serum sample, LC/MS, detection intensity changed by 30% or more vs 2 times of freezing and thawing): 4 times; Increase or decrease ([10]; serum sample, LC/MS, detection intensity vs 2 times of freezing and thawing): Decrease
